The target of data set [1] is T1, MAGL (Homo sapiens, UniProt Q99685).
T1 sequence (Q99685 1-303): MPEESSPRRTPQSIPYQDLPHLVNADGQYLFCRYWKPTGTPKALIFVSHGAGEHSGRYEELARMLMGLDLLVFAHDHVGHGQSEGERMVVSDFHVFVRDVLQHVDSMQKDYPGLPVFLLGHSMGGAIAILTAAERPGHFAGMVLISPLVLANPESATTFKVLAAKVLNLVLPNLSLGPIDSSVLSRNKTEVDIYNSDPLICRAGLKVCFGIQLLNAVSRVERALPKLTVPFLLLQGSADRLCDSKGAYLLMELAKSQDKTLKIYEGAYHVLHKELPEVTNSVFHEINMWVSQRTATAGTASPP
As to the kind of experiment: In vitro competitive substrate hydrolysis enzyme activity assay (pNPA), HEK293 cell lysates. Conditions: HEK293 lysate. Set-up: expressed in transfected cells; host or cells: HEK293. Type of data set: biochemical. The method in brief: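 Lysates of HEK293 cells expressing human MAGL (~1.2 μg protein) preincubated 30 min at 25° C with inhibitor in 50 mM HEPES pH 7.0, 200 mM KCl, 1 mM EDTA. pNPA substrate then added (2× stock 2.5 mM), and A405 followed for 20 min at 25° C. Rates normalized to DMSO, and IC50 from 4-parameter fit.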

Data set [2] addresses T1, MAGL. The data set can be described thus: In vitro competitive activity-based protein profiling, PC3 human cell membrane proteomes. Type of data set: biochemical. The arrangement: endogenous in cells; host or cells: PC3 human cells (membrane proteome). Particulars: human PC3 membrane proteome; for inhibition at 1 µM: read-out: MAGL % inh. 1 μM (human PC3). The method in brief:
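Competitive ABPP in PC3 membrane proteome (2.0 mg/mL protein): inhibitors preincubated 30 min at 37° C, then JW912-Bodipy probe added for 30 min at room temperature. MAGL band fluorescence after SDS-PAGE normalised to DMSO; IC50 from 4-parameter sigmoidal fit.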

For data set [3], the system named is cryopreserved human hepatocytes. The data set can be described thus: In vitro human hepatocyte stability. Type of data set: in vitro ADME. Particulars: human hepatocytes 0.5×10^6 cells/mL, 1 μM. The method, then: The metabolic stability of test articles (1 μM) in commercially sourced, pooled donor, cryopreserved human hepatocytes (0.5×10^6 cells/mL) was determined in duplicate. The CLint reactions (250 μL) were initiated by addition of test compound. Aliquots (25 μL) were taken at 0, 15, 30, 45, 60, 90, 120 and 240 minutes and then protein crashed with ice-cold acetonitrile containing internal standard then centrifuged (3220 g for 25 minutes). Supernatant was used for LC-MS/MS analysis. The in vitro half-life (in vitro t½) was determined from the slope value: in vitro t1/2=−0.693/k. Conversion of the in vitro t1/2 (in min) into the scale-up unbound intrinsic clearance (Scaled-up unbound CLint, in mL/min/kg) was done using the following equation (mean of duplicate determinations), with data shown in Table 5: Scaled-up unbound CLint=kV/N×scaling factor. V=incubation volume (0.25 mL); N=number of hepatocytes per well ([…]). Scaling factors for in vivo intrinsic clearance prediction are listed below: […]

Data set [4] deals with maximal electroshock seizure threshold (MEST) model. The data set can be described thus: Maximal electroshock seizure threshold (MEST) model in the rat. Format: in vivo. Conditions: 10 mg/kg p.o., 240 min pre-treatment. The method, then:
In the MEST model, a low-intensity electrical current of high frequency and short duration is applied to induce tonic convulsions.
Animals were randomly assigned to vehicle, compound treatment or Lamotrigine dose groups. Animals were dosed at 5 mL/kg according to treatment groups (n=12 or 16/group), with either vehicle (0.5% MC) p.o. for Example 6, vehicle (10% HP-b-CD) for Example 8, test compound at 10 mg/kg p.o. 240 min pre-treatment time, or Lamotrigine p.o. 360 min pre-treatment time. Rats were individually assessed for production of a tonic hind limb extensor seizure following a single corneally delivered electroshock of 0.3 second duration, using an ‘up and down method’ of shock titration (Kimball A W et al., 1957). Thus, the first rat within a treatment group was given a shock at the expected or estimated CC50 current (current producing tonic hind limb extensor seizures in 50% of animals). […] This procedure was continued for all rats within a treatment group. Induction of seizure was measured as an all-or-nothing effect scored as either present (+) or absent (0) for each animal. […]
Significant differences between drug-treated animals and controls were assessed according to Litchfield and Wilcoxon (1949) or One-Way ANOVA followed by Dunnett's multiple comparisons test.
In general terms: In the maximal electroshock model the usual endpoint is tonic extension of the hind limbs.

The test system of data set [5] is rat formalin paw model of inflammatory pain. The data set can be described thus: Rat formalin paw model of inflammatory pain. Particulars: 4 h pre-test, vs vehicle. Format: in vivo. The method, then:
In the rat formalin paw model formalin is administered into the right […] of a rat in order to induce pain (observed by hind limb licking duration and frequency).
Male Sprague Dawley rats were divided into three cohorts to enable testing in the Laboras™ equipment to be carried out over three days in a balanced design to give treatment groups of 10. On the day of the study, male Sprague Dawley rats were weighed, tail marked and dosed orally with vehicle, test compound (0.1, 0.3, 0.6, 1, 3 or 10 mg/kg) or pregabalin (30 mg/kg) 4 h pre-test using a 5 mL/kg dosing volume. For Example 6 the vehicle used was 0.5% methylcellulose in water and for Example 8 the vehicle used was 20% HP-b-CD. Up to six animals were dosed at a time. After 4 h, rats received an intraplantar injection of 50 μL of a 2.5% v/v formalin solution into the right hind paw. Rats were immediately placed into the Laboras™ cages and data acquisition started. The primary measures recorded by Laboras™ for the formalin paw model are hind limb licking duration and frequency. Locomotion is also reported as maximum speed, average speed when moving or over the whole-time bin and distance travelled. After 40 min, when data acquisition was complete, rats were removed from the cages.
On removal from the test cages, rats were anaesthetised with the gaseous anaesthetic isoflurane (5% v/v isoflurane in oxygen) and blood samples were collected by cardiac puncture. Brains were then removed, rinsed in phosphate buffered saline (PBS), hemi-sected and frozen separately in liquid nitrogen.
Data were analysed with Statistica software (TIBCO, USA version 11.1). All data are expressed as means±standard error of the mean (sem) to one decimal place. […] Time course data were analysed by repeated measures analysis of variance (ANOVA) followed by one-way ANOVAs at each time point and subsequent Dunnett's post hoc tests. […]

Data set [6] relates to kainic acid seizure model. As to the kind of experiment: Kainic acid seizure model in the rat. Type of data set: in vivo. As to the method:
Kainic acid is an analog of the excitatory neurotransmitter, glutamate and acts as an agonist of kainic acid receptors. After systemic injection, kainic acid induces prolonged excitatory responses with many of the features of human temporal lobe epilepsy.
Rats, placed in individual Plexiglas cages (33×21×18 cm), are injected with kainic acid (20 mg/kg i.p.). The occurrences of the following symptoms are noted over a 120-minute period 30 minutes after kainic acid injection: forelimb clonus, rearings and rearings with falling, clonic convulsions, tonic convulsions and death. The presence of each symptom and the latencies to the first appearance of the symptoms are measured. The number of forelimb clonus is counted.
12 rats are studied per group. The test is performed partially blind.
The test substances will be evaluated at multiple doses, administered p.o. 240 minutes before the test, and compared with the corresponding vehicle control group (Group 2, administered with 10% HP-b-CD in distilled water, p.o. 240 minutes before the test).
Example 6 was evaluated at 0.3, 1, 3 and 10 mg/kg, and Example 8 was evaluated at 1, 3 and 10 mg/kg, administered p.o. 4 hours before the test, and compared with a vehicle control group (administered with 10% HP-b-CD, p.o. 4 hours before the test).
Diazepam (16 mg/kg) used as reference substance, was administered p.o. 60 minutes before the test (0.5% HP-b-CD) and was compared with vehicle controls.
Quantitative data (latencies) with the test substance was analyzed by comparing treated groups with vehicle control using Kruskal-Wallis test followed by Mann-Whitney U test. Quantitative data with the reference substance will be analysed using Mann-Whitney U test.
Quantal data (frequencies) were analyzed by comparing treated groups with vehicle control using Fisher's Exact Probability tests.

The target of data set [7] is T2, MAGL (Rattus norvegicus, UniProt Q8R431).
T2 sequence (Q8R431 1-303): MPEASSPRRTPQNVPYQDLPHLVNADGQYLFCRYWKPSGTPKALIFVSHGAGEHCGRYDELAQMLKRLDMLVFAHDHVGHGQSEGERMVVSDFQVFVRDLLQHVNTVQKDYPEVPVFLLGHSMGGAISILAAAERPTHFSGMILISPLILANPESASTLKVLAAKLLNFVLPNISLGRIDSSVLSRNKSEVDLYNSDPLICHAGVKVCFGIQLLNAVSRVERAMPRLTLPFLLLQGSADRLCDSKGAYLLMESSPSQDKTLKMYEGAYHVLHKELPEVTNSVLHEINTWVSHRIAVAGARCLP
As to the kind of experiment: MAGL IC50 values marked (rat) in Table 1. Format: biochemical. Particulars: cell marked (rat) in the human PC3 column.

With `O=C(Nc1cncnc1)C1CC12CCN(C(=O)OC(C(F)(F)F)C(F)(F)F)CC2` (single isomer, unassigned) [Example 96, 1,1,1,3,3,3-hexafluoropropan-2-yl (R or S)-1-(pyrimidin-5-ylcarbamoyl)-6-azaspiro[2.5]octane-6-carboxylate], the half-maximal inhibitory concentration (IC50) in data set [1] is 0.0489 µM. Further, in data set [2], the inhibition at 1 µM amounted to 100% and the IC50 is 0.0193 µM. The “Scaled-up unbound CLint” value in data set [3] came to 17.09 mL/min/kg.
As to `O=C(NC1CCOCC1)[C@H]1CC12CCN(C(=O)OC(C(F)(F)F)C(F)(F)F)CC2` [Example 8, 1,1,1,3,3,3-Hexafluoropropan-2-yl (S)-1-((tetrahydro-2H-pyran-4-yl)carbamoyl)-6-azaspiro[2.5]octane-6-carboxylate], in data set [4], the “anticonvulsant activity in the MEST (seizure threshold CC50)” value is given as “anticonvulsant activity”. The “measure of spontaneous pain (hind limb licking frequency)” value in data set [5] (0.3 mg/kg and 0.6 mg/kg oral, late phase) is given as “statistically significant reduction”; in data set [5] (1 mg/kg, 3 mg/kg and 10 mg/kg oral, both early and late phases), “statistically significant reduction”. The compound also had an IC50 in data set [2] of 0.0657 µM. For the same compound, the “anticonvulsant effects in the kainic acid seizure test” value in data set [6] (dose-range 1-10 mg/kg p.o., 4 hours before the test, rat) is recorded as “clear anticonvulsant effects”. Further, the “magnitude of the effects in the kainic acid seizure test compared with reference” value in data set [6] (middle-high doses, reference Diazepam 16 mg/kg p.o.) is “close to those observed with the reference substance, Diazepam”. Further, in data set [3], the “Scaled-up unbound CLint” value is 7.75 mL/min/kg.
On to `N#Cc1ccc(NC(=O)C2CC23CCN(C(=O)OC(C(F)(F)F)C(F)(F)F)CC3)cn1` (racemic) [Example 189, 1,1,1,3,3,3-hexafluoropropan-2-yl (+)1-((6-cyanopyridin-3-yl)carbamoyl)-6-azaspiro[2.5]octane-6-carboxylate], for which, in data set [7], the IC50 worked out at 0.0033 µM.
As to `O=C(Nc1cncc(F)c1)C1CC12CCN(C(=O)OC(C(F)(F)F)C(F)(F)F)CC2` (single isomer, unassigned) [Example 40, 1,1,1,3,3,3-hexafluoropropan-2-yl (R or S)-1-((5-fluoropyridin-3-yl)carbamoyl)-6-azaspiro[2.5]octane-6-carboxylate], the IC50 in data set [1] is 0.00343 µM; in data set [2], 0.0027 µM. Further, the “Scaled-up unbound CLint” value in data set [3] amounted to 43.25 mL/min/kg.
For the compound `O=C(Nc1cccnc1)[C@H]1CC12CCN(C(=O)OC(C(F)(F)F)C(F)(F)F)CC2` (single isomer, unassigned) [Example 2], the IC50 in data set [1] was found to be 0.00289 µM. In addition, in data set [2], the inhibition at 1 µM was determined as 100% and the IC50 was 0.002 µM. Further, the “Scaled-up unbound CLint” value in data set [3] is given as 34.8 mL/min/kg.
Compound `O=C(Nc1ccc(-n2cccn2)nc1)C1CC12CCN(C(=O)OC(C(F)(F)F)C(F)(F)F)CC2` (single isomer, unassigned) [Example 29, 1,1,1,3,3,3-Hexafluoropropan-2-yl (R or S)-1-((6-(1H-pyrazol-1-yl)pyridin-3-yl)carbamoyl)-6-azaspiro[2.5]octane-6-carboxylate] displayed an IC50 in data set [2] of 0.003 µM. In data set [3], the “Scaled-up unbound CLint” value is given as 32.74 mL/min/kg.
`CP(C)(=O)c1ccc(NC(=O)C2CC23CCN(C(=O)OC(C(F)(F)F)C(F)(F)F)CC3)cn1` (single isomer, unassigned) [Example 20, 1,1,1,3,3,3-Hexafluoropropan-2-yl (R or S)-1-((6-(dimethylphosphoryl)pyridin-3-yl)carbamoyl)-6-azaspiro[2.5]octane-6-carboxylate]: the IC50 in data set [2] came to 0.029 µM. The “Scaled-up unbound CLint” value in data set [3] turned out to be 0.85 mL/min/kg.
`Cc1cnc(NC(=O)C2CC23CCN(C(=O)OC(C(F)(F)F)C(F)(F)F)CC3)cn1` (single isomer, unassigned) [Example 112, 1,1,1,3,3,3-hexafluoropropan-2-yl (R or S)-1-((5-methylpyrazin-2-yl)carbamoyl)-6-azaspiro[2.5]octane-6-carboxylate]: the IC50 in data set [2] was found to be 0.0042 µM. The “Scaled-up unbound CLint” value in data set [3] is recorded as 9.59 mL/min/kg.

The term IC50 denotes the midpoint of a concentration-inhibition curve. Low values mean higher potency, high ones lower potency.

These data come from patent US20240018120A1, “MAGL INHIBITORS” (H. LUNDBECK A/S, priority 2020, published 2024).
